Test results: patent US9636418B2 (priority 2013, dated 2017)
Read-outs that look alike come from different tables or passages of the source.

Tests used:
Experiment in all cases: cell-based
hNav1.7 = hNav1.7 (Homo sapiens, UniProt Q15858); format: cell-based; conditions: PatchXpress, read-out: PX hNav1.7 Tonic IC50
hNav1.4 [1] = target: T1, hNav1.4 (Homo sapiens, UniProt P35499); conditions: for IC50: PatchXpress, read-out: PX hNav1.4 Tonic IC50
hNav1.5 = hNav1.5 (Homo sapiens, UniProt Q14524); conditions: for IC50: PatchXpress, read-out: PX hNav1.5 Tonic IC50
hNav1.4 [2] = target: T1, hNav1.4; conditions: ratio of IonWorks Quattro IC50 values
[3] = * = at high concentrations compound would wash off slowly or not at all

hNav1.5, sequence (Q14524 whole entry): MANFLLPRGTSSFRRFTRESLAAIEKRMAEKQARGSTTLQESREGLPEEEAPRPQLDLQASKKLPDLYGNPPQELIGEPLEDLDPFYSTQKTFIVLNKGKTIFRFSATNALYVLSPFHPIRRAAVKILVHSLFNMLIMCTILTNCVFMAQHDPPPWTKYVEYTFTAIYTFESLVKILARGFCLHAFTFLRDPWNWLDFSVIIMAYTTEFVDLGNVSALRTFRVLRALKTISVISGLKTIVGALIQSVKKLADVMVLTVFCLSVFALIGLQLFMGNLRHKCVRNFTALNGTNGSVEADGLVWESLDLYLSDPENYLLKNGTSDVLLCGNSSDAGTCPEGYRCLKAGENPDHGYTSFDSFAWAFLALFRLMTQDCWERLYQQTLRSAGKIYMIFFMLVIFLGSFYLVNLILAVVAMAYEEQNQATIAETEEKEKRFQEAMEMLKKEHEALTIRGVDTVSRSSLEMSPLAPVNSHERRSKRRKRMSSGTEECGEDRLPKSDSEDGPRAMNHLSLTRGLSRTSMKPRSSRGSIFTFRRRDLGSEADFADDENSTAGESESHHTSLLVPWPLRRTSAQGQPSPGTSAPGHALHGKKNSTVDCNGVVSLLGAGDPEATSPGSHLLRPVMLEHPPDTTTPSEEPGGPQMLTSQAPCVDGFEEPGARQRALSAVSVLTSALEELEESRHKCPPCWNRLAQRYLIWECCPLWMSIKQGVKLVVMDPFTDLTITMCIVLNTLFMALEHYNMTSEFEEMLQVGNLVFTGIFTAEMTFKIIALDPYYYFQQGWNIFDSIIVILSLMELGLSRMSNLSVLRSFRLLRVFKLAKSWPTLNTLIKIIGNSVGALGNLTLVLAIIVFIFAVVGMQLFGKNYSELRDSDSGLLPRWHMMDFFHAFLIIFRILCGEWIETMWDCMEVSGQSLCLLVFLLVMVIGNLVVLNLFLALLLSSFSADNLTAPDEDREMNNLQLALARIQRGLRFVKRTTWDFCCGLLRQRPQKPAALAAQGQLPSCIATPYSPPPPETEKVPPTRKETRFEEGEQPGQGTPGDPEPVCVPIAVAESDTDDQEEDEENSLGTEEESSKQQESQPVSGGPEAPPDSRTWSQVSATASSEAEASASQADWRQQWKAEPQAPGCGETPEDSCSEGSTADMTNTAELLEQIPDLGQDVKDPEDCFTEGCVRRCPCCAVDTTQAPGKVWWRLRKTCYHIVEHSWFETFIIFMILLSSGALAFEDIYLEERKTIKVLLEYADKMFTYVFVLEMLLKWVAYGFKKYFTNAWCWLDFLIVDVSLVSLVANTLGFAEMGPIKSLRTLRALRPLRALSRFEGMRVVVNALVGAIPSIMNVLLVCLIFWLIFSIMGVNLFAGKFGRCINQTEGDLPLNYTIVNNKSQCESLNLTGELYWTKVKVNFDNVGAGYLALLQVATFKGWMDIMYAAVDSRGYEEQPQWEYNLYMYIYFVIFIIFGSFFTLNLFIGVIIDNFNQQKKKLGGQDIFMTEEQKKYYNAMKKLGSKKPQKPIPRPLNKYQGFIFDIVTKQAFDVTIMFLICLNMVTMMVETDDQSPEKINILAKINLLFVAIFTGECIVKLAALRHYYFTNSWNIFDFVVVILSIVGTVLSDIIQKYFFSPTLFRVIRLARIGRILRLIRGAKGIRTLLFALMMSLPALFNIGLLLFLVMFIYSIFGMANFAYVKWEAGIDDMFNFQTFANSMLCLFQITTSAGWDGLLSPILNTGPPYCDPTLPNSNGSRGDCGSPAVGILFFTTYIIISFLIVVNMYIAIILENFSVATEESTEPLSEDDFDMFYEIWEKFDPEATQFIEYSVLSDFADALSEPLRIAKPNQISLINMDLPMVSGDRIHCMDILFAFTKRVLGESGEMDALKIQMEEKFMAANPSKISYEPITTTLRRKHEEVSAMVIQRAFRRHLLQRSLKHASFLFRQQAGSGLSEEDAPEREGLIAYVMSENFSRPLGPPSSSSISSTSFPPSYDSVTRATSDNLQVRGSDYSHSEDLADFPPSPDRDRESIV
T1 sequence (P35499 whole entry): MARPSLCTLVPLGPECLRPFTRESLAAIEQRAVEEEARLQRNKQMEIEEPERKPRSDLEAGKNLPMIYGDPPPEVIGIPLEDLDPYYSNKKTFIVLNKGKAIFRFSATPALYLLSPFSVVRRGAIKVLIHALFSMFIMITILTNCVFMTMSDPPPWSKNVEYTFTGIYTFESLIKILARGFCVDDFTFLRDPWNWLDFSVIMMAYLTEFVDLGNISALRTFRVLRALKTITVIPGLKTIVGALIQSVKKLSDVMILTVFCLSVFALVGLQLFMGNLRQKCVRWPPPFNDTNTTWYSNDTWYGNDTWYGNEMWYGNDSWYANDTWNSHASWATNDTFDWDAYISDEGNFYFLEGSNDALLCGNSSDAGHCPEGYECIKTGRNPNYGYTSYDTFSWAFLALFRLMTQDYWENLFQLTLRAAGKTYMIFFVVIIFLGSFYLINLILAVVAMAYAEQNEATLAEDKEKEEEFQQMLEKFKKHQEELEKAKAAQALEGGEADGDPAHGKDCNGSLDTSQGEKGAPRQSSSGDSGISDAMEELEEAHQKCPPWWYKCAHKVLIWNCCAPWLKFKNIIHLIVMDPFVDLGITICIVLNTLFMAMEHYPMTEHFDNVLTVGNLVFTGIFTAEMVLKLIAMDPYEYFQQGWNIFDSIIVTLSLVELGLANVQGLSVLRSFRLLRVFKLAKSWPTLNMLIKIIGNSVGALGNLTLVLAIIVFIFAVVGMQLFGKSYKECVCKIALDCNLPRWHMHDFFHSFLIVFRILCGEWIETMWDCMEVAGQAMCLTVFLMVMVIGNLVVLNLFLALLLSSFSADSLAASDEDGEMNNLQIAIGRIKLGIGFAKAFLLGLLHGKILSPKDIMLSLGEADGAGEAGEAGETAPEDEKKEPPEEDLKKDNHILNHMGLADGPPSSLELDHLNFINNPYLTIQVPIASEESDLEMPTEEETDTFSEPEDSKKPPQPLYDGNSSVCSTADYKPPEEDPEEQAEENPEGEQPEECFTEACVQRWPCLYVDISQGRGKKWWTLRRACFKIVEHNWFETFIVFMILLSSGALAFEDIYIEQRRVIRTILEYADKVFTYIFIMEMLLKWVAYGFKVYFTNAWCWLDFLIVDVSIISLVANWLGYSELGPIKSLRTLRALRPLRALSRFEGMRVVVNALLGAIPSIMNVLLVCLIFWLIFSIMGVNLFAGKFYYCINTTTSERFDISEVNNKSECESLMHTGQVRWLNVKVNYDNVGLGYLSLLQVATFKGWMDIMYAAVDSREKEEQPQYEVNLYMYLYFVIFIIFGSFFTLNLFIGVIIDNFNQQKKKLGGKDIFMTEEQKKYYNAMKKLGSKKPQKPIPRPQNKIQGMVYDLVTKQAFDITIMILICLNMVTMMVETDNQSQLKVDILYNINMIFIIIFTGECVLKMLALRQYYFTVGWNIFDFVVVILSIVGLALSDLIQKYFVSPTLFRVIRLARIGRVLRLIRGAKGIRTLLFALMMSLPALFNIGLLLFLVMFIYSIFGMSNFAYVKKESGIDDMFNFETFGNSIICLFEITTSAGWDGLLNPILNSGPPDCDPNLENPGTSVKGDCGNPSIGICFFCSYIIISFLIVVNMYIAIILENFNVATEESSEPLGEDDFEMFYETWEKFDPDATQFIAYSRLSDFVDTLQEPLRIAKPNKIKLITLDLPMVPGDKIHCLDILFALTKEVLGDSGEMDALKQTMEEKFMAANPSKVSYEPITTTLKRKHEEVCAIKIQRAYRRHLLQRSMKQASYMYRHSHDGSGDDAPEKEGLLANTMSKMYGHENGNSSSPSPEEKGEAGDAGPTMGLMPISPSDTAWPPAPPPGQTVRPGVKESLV

Compound | IC50 (hNav1.7; tonic block) [nM] | IC50 (hNav1.4 [1]; tonic block) [nM] | IC50 (hNav1.5; tonic block) [nM] | Nav1.4/Nav1.7 (hNav1.4 [1]; ratio of PX IC50 values) | further results
C#CC[C@@H]1NC(=O)[C@@H]2CSSC[C@H](NC(=O)[C@@H](N)Cc3ccc(O)cc3)C(=O)N[C@@H](CCC(N)=O)C(=O)N[C@@H](CCCCN)C(=O)N[C@@H](Cc3c[nH]c4ccccc34)C(=O)N[C@@H](CCCC)C(=O)N[C@@H](Cc3c[nH]c4ccccc34)C(=O)N[C@@H]([C@@H](C)O)C(=O)N[C@H]3CSSC[C@H](NC(=O)[C@H](CCCNC(=N)N)NC(=O)[C@H](CC(C)C)NC(=O)CNC1=O)C(=O)N[C@@H](CCCCN)C(=O)N[C@@H](CC(C)C)C(=O)N[C@@H](Cc1c[nH]c4ccccc14)C(=O)N[C@H](C(=O)N[C@@H](CCCNC(=N)N)C(=O)N[C@@H](CCCCN)C(=O)N[C@@H](CCC(=O)O)C(=O)N[C@H](C(N)=O)[C@@H](C)CC)CSSC[C@H](NC(=O)[C@H](C)NC(=O)[C@H](CCCNC(=N)N)NC(=O)[C@H](CCCCN)NC(=O)[C@H](CO)NC(=O)[C@H](CC(=O)O)NC3=O)C(=O)N2 [compound 332] | 3.63 | 125 | 3080 |  | Nav1.4/Nav1.7 (hNav1.4 [1]; ratio of PX tonic IC50 values): 34
CCCC[C@@H]1NC(=O)[C@H](Cc2c[nH]c3ccccc23)NC(=O)[C@H](CCCCN)NC(=O)[C@H](CCC(N)=O)NC(=O)[C@@H](NC(=O)[C@H](Cc2ccc(O)cc2)NC(=O)[C@H](N)Cc2ccccc2)CSSC[C@@H]2NC(=O)[C@@H]3CSSC[C@@H](C(=O)N[C@@H](CCCNC(=N)N)C(=O)N[C@@H](CCCCN)C(=O)N[C@H](C(=O)N[C@H](C(N)=O)[C@@H](C)CC)[C@@H](C)CC)NC(=O)[C@H](Cc4c[nH]c5ccccc45)NC(=O)[C@H](CC(C)C)NC(=O)[C@H](CCCCN)NC(=O)[C@H](CSSC[C@H](NC(=O)[C@H]([C@@H](C)O)NC(=O)[C@H](Cc4c[nH]c5ccccc45)NC1=O)C(=O)N[C@@H](CC(=O)O)C(=O)N[C@@H](CO)C(=O)N[C@@H](CCCCN)C(=O)N[C@@H](CCCNC(=N)N)C(=O)N[C@@H](C)C(=O)N3)NC(=O)[C@H](CCCNC(=N)N)NC(=O)[C@H](CC(C)C)NC(=O)CNC(=O)[C@H](CCC(=O)O)NC2=O [compound 374] |  |  |  | 19 | IC50 (hNav1.7; [3]): 0.351 nM; IC50 (hNav1.4 [1]; [3]): 6.8 nM; IC50 (hNav1.5; [3]): 620 nM
CCCC[C@@H]1NC(=O)[C@H](Cc2c[nH]c3ccccc23)NC(=O)[C@H](CCCCN)NC(=O)[C@H](CCC(N)=O)NC(=O)[C@@H](NC(=O)[C@H](Cc2ccc(O)cc2)NC(=O)[C@@H](N)CCCC)CSSC[C@@H]2NC(=O)[C@@H]3CSSC[C@@H](C(=O)N[C@@H](CCCNC(=N)N)C(=O)N[C@@H](CCCCN)C(=O)N[C@H](C(=O)N[C@H](C(N)=O)[C@@H](C)CC)[C@@H](C)CC)NC(=O)[C@H](Cc4c[nH]c5ccccc45)NC(=O)[C@H](CC(C)C)NC(=O)[C@H](CCCCN)NC(=O)[C@H](CSSC[C@H](NC(=O)[C@H]([C@@H](C)O)NC(=O)[C@H](Cc4c[nH]c5ccccc45)NC1=O)C(=O)N[C@@H](CC(=O)O)C(=O)N[C@@H](CO)C(=O)N[C@@H](CCCCN)C(=O)N[C@@H](CCCNC(=N)N)C(=O)N[C@@H](C)C(=O)N3)NC(=O)[C@H](CCCNC(=N)N)NC(=O)[C@H](CC(C)C)NC(=O)CNC(=O)[C@H](CCC(=O)O)NC2=O [compound 370] |  |  |  | 21 | IC50 (hNav1.7; [3]): 0.223 nM; IC50 (hNav1.4 [1]; [3]): 4.6 nM; IC50 (hNav1.5; [3]): 830 nM
C#CC[C@H](N)C(=O)NCCOCCOCCOCCOCCC(=O)NCCCC[C@@H]1NC(=O)[C@@H]2CSSC[C@H](NC(=O)[C@H](Cc3ccc(O)cc3)NC(=O)[C@@H](N)CC#N)C(=O)N[C@@H](CCC(N)=O)C(=O)N[C@@H](CCCCN)C(=O)N[C@@H](Cc3c[nH]c4ccccc34)C(=O)N[C@@H](CCCC)C(=O)N[C@@H](Cc3c[nH]c4ccccc34)C(=O)N[C@@H]([C@@H](C)O)C(=O)N[C@H]3CSSC[C@H](NC(=O)[C@H](CCCNC(=N)N)NC(=O)[C@H](CC(C)C)NC(=O)CNC1=O)C(=O)N[C@@H](CCCCN)C(=O)N[C@@H](CC(C)C)C(=O)N[C@@H](Cc1c[nH]c4ccccc14)C(=O)N[C@H](C(=O)N[C@@H](CCCNC(=N)N)C(=O)N[C@@H](CCCCN)C(=O)N[C@H](C(=O)N[C@H](C(N)=O)[C@@H](C)CC)[C@@H](C)CC)CSSC[C@H](NC(=O)[C@H](C)NC(=O)[C@H](CCCNC(=N)N)NC(=O)[C@H](CCCCN)NC(=O)[C@H](CO)NC(=O)[C@H](CC(=O)O)NC3=O)C(=O)N2 [compound 385] | 3.64 |  |  |  | Nav1.4/Nav1.7 (hNav1.4 [1]; ratio of PX tonic IC50 values): 0; Nav1.5/Nav1.7 (hNav1.5; ratio of PX tonic IC50 values): 0
CCCC[C@@H]1NC(=O)[C@H](Cc2c[nH]c3ccccc23)NC(=O)[C@H](CCCCN)NC(=O)[C@H](CCC(N)=O)NC(=O)[C@@H](NC(=O)[C@H](Cc2ccc(O)cc2)NC(=O)[C@@H](N)CCN=[N+]=[N-])CSSC[C@@H]2NC(=O)[C@@H]3CSSC[C@@H](C(=O)N[C@@H](CCCNC(=N)N)C(=O)N[C@@H](CCCCN)C(=O)N[C@H](C(=O)N[C@@H](Cc4c[nH]c5ccccc45)C(N)=O)[C@@H](C)CC)NC(=O)[C@H](Cc4c[nH]c5ccccc45)NC(=O)[C@H](CC(C)C)NC(=O)[C@H](CCCCN)NC(=O)[C@H](CSSC[C@H](NC(=O)[C@H]([C@@H](C)O)NC(=O)[C@H](Cc4c[nH]c5ccccc45)NC1=O)C(=O)N[C@@H](CC(=O)O)C(=O)N[C@@H](CO)C(=O)N[C@@H](CCCCN)C(=O)N[C@@H](CCCNC(=N)N)C(=O)N[C@@H](C)C(=O)N3)NC(=O)[C@H](CCC(=O)O)NC(=O)[C@H](CC(C)C)NC(=O)CNC(=O)[C@H](CCC(=O)O)NC2=O [compound 308] | 1.12 | 1200 | 3770 |  | 
C#CC[C@H](N)C(=O)N[C@@H](Cc1ccc(O)cc1)C(=O)N[C@H]1CSSC[C@@H]2NC(=O)[C@@H]3CSSC[C@@H](C(=O)N[C@@H](CCCNC(=N)N)C(=O)N[C@@H](CCCCN)C(=O)N[C@@H](Cc4ccc(O)cc4)C(=O)N[C@H](C(N)=O)[C@@H](C)CC)NC(=O)[C@H](Cc4c[nH]c5ccccc45)NC(=O)[C@H](CC(C)C)NC(=O)[C@H](CCCCN)NC(=O)[C@H](CSSC[C@H](NC(=O)[C@H]([C@@H](C)O)NC(=O)[C@H](Cc4c[nH]c5ccccc45)NC(=O)[C@H](CCCC)NC(=O)[C@H](Cc4c[nH]c5ccccc45)NC(=O)[C@H](CCCCN)NC(=O)[C@H](CCC(N)=O)NC1=O)C(=O)N[C@@H](CC(=O)O)C(=O)N[C@@H](CO)C(=O)N[C@@H](CCCCN)C(=O)N[C@@H](CCCNC(=N)N)C(=O)N[C@@H](C)C(=O)N3)NC(=O)[C@H](CCC(=O)O)NC(=O)[C@H](CC(C)C)NC(=O)CNC(=O)[C@H](CCC(=O)O)NC2=O [compound 313] | 0.427 | 966 | 4370 |  | 
CCCC[C@@H]1NC(=O)[C@H](Cc2c[nH]c3ccccc23)NC(=O)[C@H](CCCCN)NC(=O)[C@H](CCC(N)=O)NC(=O)[C@@H](NC(=O)[C@@H](N)Cc2ccc(O)cc2)CSSC[C@@H]2NC(=O)[C@@H]3CSSC[C@@H](C(=O)N[C@@H](CCCNC(=N)N)C(=O)N[C@@H](CCCCN)C(=O)N[C@H](C(=O)N[C@H](C(N)=O)[C@@H](C)CC)[C@@H](C)CC)NC(=O)[C@H](Cc4c[nH]c5ccccc45)NC(=O)[C@H](CC(C)C)NC(=O)[C@H](CCCCN)NC(=O)[C@H](CSSC[C@H](NC(=O)[C@H]([C@@H](C)O)NC(=O)[C@H](Cc4c[nH]c5ccccc45)NC1=O)C(=O)N[C@@H](CC(=O)O)C(=O)N[C@@H](Cc1cn(CCCOCCOCCOCCOCCOCCOCCOCCOCCOCCOCCN)nn1)C(=O)N[C@@H](CCCCN)C(=O)N[C@@H](CCCNC(=N)N)C(=O)N[C@@H](C)C(=O)N3)NC(=O)[C@H](CCCNC(=N)N)NC(=O)[C@H](CC(C)C)NC(=O)CNC(=O)[C@H](CCC(=O)O)NC2=O [compound 256] |  |  |  | 3 | Nav1.4/Nav1.7 (hNav1.4 [2]): 4; Nav1.5/Nav1.7 (hNav1.5; ratio of PX IC50 values): 200
